Legend:
[1] = target: GST-tagged human ROCK1 catalytic domain 1-477 (Homo sapiens (Human), UniProt Q13464); assay: Inhibition of Rho-associated protein kinase isoform 1 (LANCE Ultra ULight-CREBtide FRET kinase assay); type: biochemical; details: 30 μM was the highest concentration analyzed
Method in brief: (§1)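 Baculovirus-expressed kinase phosphorylated ULight-CREBtide for 90 min at room temperature before the reaction was stopped with 10 mM EDTA. Phospho-substrate was detected by TR-FRET with 1 nM Europium-anti-phospho-CREB (Ser133) antibody after 60 min at room temperature.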

[2] = target: GST-tagged human ROCK2 catalytic domain 1-553 (Homo sapiens (Human), UniProt O75116); assay: Inhibition of Rho-associated protein kinase isoform 2 (LANCE Ultra ULight-CREBtide FRET kinase assay); type: biochemical; details: for IC50: 30 μM was the highest concentration analyzed; for Selectivity for ROCK2 over ROCK1 (IC50 ROCK1 / IC50 ROCK2): selectivity ROCK2 vs ROCK1
GST-tagged human ROCK2 catalytic domain 1-553, sequence (O75116 1-553): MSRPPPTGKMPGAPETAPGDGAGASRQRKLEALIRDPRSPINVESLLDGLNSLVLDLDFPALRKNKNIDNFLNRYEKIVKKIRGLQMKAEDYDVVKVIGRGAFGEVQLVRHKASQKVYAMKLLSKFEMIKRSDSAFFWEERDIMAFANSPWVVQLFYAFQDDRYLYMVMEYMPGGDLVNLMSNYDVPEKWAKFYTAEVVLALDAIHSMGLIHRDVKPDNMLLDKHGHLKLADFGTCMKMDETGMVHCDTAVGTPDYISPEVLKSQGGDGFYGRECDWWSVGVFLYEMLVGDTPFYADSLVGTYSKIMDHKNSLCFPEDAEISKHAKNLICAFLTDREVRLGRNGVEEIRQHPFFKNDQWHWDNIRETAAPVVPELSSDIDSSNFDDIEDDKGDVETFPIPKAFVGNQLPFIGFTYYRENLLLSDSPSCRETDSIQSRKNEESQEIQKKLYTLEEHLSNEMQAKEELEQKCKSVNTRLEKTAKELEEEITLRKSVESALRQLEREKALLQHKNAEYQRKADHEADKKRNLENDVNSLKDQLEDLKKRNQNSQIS
Method in brief: as §1

GST-tagged human ROCK1 catalytic domain 1-477, sequence (Q13464 1-477): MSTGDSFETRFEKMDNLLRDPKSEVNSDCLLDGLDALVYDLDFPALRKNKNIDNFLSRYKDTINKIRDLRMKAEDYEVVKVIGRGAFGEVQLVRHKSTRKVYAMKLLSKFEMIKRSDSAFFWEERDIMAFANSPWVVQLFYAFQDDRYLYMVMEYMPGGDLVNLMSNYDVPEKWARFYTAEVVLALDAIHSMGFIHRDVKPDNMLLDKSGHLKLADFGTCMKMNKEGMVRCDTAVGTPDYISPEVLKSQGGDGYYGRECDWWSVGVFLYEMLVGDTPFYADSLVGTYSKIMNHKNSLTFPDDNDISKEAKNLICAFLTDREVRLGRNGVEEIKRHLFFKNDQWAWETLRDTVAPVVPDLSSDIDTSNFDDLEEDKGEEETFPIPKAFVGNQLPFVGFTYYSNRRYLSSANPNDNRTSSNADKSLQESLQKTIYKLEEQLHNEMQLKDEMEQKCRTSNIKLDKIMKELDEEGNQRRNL

IC50 [1]	IC50 [2]	Selectivity for ROCK2 over ROCK1 (IC50 ROCK1 / IC50 ROCK2) [2]	SMILES
< 1 µM	< 1 µM	>5	O=C(O)C(F)(F)F.OCc1cc(-c2ncco2)cc(-c2nnc(Nc3ccc4[nH]ncc4c3Cl)s2)c1 [Example 41C]
< 1 µM	< 1 µM	>5	CCc1c(Nc2nnc(-c3cccc(NC(C)=O)c3)s2)ccc2[nH]ncc12 [Example 75C]
1 to 15 µM	< 1 µM	>5	O=C(Nc1cccc(-c2nnc(Nc3ccc4[nH]ncc4c3Cl)s2)c1)C1CNC1 [Example 35AD]
1 to 15 µM	< 1 µM	>5	Clc1c(Nc2nnc(-c3cccn4cc(C5CCNCC5)nc34)s2)ccc2[nH]ncc12 [Example 50H]
> 30 µM	< 1 µM	>100	Clc1c(Nc2nnc(-c3cccc(-c4nccs4)c3)s2)ccc2[nH]ncc12 [Example 46I]
> 30 µM	1 to 15 µM	>5	CC(=O)N(C)c1cccc(-c2nnc(Nc3ccc4[nH]ncc4c3Cl)s2)c1 [Example 35AZ]
< 1 µM	< 1 µM	<5	O=C(Nc1cccc(-c2nnc(Nc3ccc4[nH]ncc4c3)s2)c1)C(O)CO (centres unmarked) [Example 35CI]
< 1 µM	< 1 µM	>5	Cn1cc(C(=O)Nc2cncc(-c3nnc(Nc4ccc5[nH]ncc5c4Cl)s3)c2)cn1 [Example 35BU]
> 30 µM	> 30 µM		Cn1cc(C(=O)Nc2cccc(-c3nnc(Nc4ccc5[nH]nc(F)c5c4)s3)c2)cn1 [Example 35BW]
< 1 µM	< 1 µM	<5	O=C(Nc1cc(-c2nnc(Nc3ccc4[nH]ncc4c3Cl)s2)ccn1)c1ccc(F)cc1.O=C(O)C(F)(F)F [Example 35B]
< 1 µM	< 1 µM	>5	CC(C)C(=O)Nc1cccc(-c2nnc(Nc3ccc4[nH]ncc4c3Cl)s2)c1 [Example 35V]
> 30 µM	< 1 µM	>75	CC(=O)Nc1cccc(-c2nnc(N(C)c3ccc4[nH]ncc4c3Cl)s2)c1 [Example 35BC]
1 to 15 µM	1 to 15 µM		O=C(O)COc1cccc(-c2nnc(Nc3ccc4[nH]ncc4c3)s2)c1 [Example 35CO]
1 to 15 µM	< 1 µM	>50	CC(=O)Nc1cc(CN2CCN(C)CC2)cc(-c2nnc(Nc3ccc4[nH]ncc4c3Cl)s2)c1.O=C(O)C(F)(F)F [Example 48B]
15 to 30 µM	1 to 15 µM		O=C(O)c1cccc(-c2nnc(Nc3ccc4[nH]ncc4c3)s2)c1 [Example 35CL]
< 1 µM	< 1 µM	>5	O=C(Nc1cccc(-c2nnc(Nc3ccc4[nH]ncc4c3Cl)s2)c1)c1ccc(F)cc1 [Example 35AW]

IC50 [1]	IC50 [2]	Selectivity for ROCK2 over ROCK1 (IC50 ROCK1 / IC50 ROCK2) [2]	SMILES
> 30 µM	< 1 µM	>100	CC(=O)c1cccc(-c2nnc(Nc3ccc4[nH]ncc4c3Cl)s2)c1 [Example 35AM]
1 to 15 µM	< 1 µM	>5	CC(C)(CO)NC(=O)c1cccc(-c2nnc(Nc3ccc4[nH]ncc4c3Cl)s2)c1 [Example 35AR]
> 30 µM	< 1 µM	>100	Fc1cc(-c2ncco2)cc(-c2nnc(Nc3ccc4[nH]ncc4c3Cl)s2)c1 [Example 46J]
> 30 µM	< 1 µM	>100	Cn1c(C2CC2)nc2c(-c3nnc(Nc4ccc5[nH]ncc5c4)s3)cccc21 [Example 56G]
1 to 15 µM	1 to 15 µM	<5	CN1C(=O)Cc2cccc(-c3nnc(Nc4ccc5[nH]ncc5c4Cl)s3)c21 [Example 56C]
< 1 µM	< 1 µM	>5	O=C(Cc1cccc(C(F)(F)F)n1)Nc1cccc(-c2nnc(Nc3ccc4[nH]ncc4c3Cl)s2)c1 [Example 35AI]
1 to 15 µM	1 to 15 µM	<5	Cc1cnn(CC(=O)Nc2cccc(-c3nnc(N(C)c4ccc5[nH]ncc5c4Cl)s3)c2)c1 [Example 54C]
1 to 15 µM	< 1 µM	>5	N[C@@H](Cc1ccccc1)C(=O)Nc1cccc(-c2nnc(Nc3ccc4[nH]ncc4c3Cl)s2)c1 [Example 35AV]
< 1 µM	< 1 µM	>5	O=C(O)C(F)(F)F.O=C(O)c1cc(-c2ncco2)cc(-c2nnc(Nc3ccc4[nH]ncc4c3Cl)s2)c1 [Example 46N]
1 to 15 µM	< 1 µM	>5	CC(=O)Nc1cccc(-c2nnc(Nc3ccc4[nH]ncc4c3C)s2)c1 [Example 35J]
> 30 µM	< 1 µM	>100	O=C(Cc1ccccn1)Nc1cccc(-c2nnc(Nc3ccc4[nH]ncc4c3Cl)s2)c1 [Example 35BM]
1 to 15 µM	< 1 µM	>5	CC(=O)Nc1cccc(-c2nnc(Nc3ccc4[nH]ncc4c3C(F)(F)F)s2)c1 [Example 35AL]
1 to 15 µM	< 1 µM	>5	CC(C)(C)CC(=O)Nc1cccc(-c2nnc(Nc3ccc4[nH]ncc4c3Cl)s2)c1 [Example 35M]
< 1 µM	< 1 µM		CC(=O)Nc1cc(C(=O)O)cc(-c2nnc(Nc3ccc4[nH]ncc4c3)s2)c1 [Example 48AE]
< 1 µM	< 1 µM	>5	O=C(Nc1cc(-c2nnc(Nc3ccc4[nH]ncc4c3Cl)s2)ccn1)N1CCOCC1 [Example 35A]
< 1 µM	< 1 µM	>50	NCCn1cc(C(=O)Nc2cc(-c3nnc(Nc4ccc5[nH]ncc5c4)s3)ccn2)cn1.O=C(O)C(F)(F)F [Example 35BV]

More lines, now with the values behind:

SMILES	IC50 [1]	IC50 [2]	Selectivity for ROCK2 over ROCK1 (IC50 ROCK1 / IC50 ROCK2) [2]
Clc1c(Nc2nnc(-c3cccc(-c4nccn4C4COC4)c3)s2)ccc2[nH]ncc12 [Example 37, N-(4-Chloro-1H-indazol-5-yl)-5-(3-(1-(oxetan-3-yl)-1H-imidazol-2-yl)phenyl)-1,3,4-thiadiazol-2-amine]	> 30 µM	< 1 µM	>100
COCCn1ccnc1-c1cccc(-c2nnc(Nc3ccc4[nH]ncc4c3Cl)s2)c1.O=C(O)C(F)(F)F [Example 44, N-(4-Chloro-1H-indazol-5-yl)-5-(3-(1-(2-methoxyethyl)-1H-imidazol-2-yl)phenyl)-1,3,4-thiadiazol-2-amine 2,2,2-trifluoroacetic Acid Solvate]	< 1 µM	< 1 µM	>5
Cn1cc(C(=O)Nc2cccc(-c3nnc(Nc4ccc5[nH]ncc5c4Cl)s3)c2)cn1 [Example A-11]	> 30 µM	< 1 µM	>100
CN(CC(O)CO)C(=O)c1cccc(-c2nnc(Nc3ccc4[nH]ncc4c3)s2)c1 (centres unmarked) [Example A-10]	15 to 30 µM	1 to 15 µM	<5
O=C(O)c1cccc(-c2nnc(Nc3ccc4[nH]ncc4c3)s2)c1 [Example A-9]	15 to 30 µM	1 to 15 µM	>5
O=C(Nc1cc(-c2nnc(Nc3ccc4[nH]ncc4c3)s2)ccn1)c1c[nH]cn1 [Example A-32]	> 30 µM	< 1 µM	>100
NC1CCN(C(=O)Nc2cccc(-c3nnc(Nc4ccc5[nH]ncc5c4)s3)c2)C1 (centres unmarked) [Example A-35]	1 to 15 µM	< 1 µM	<5
Nc1cncc(-c2nnc(Nc3ccc4[nH]ncc4c3)s2)n1 [Example A-13]	> 30 µM	1 to 15 µM	>5
c1cc2[nH]ncc2cc1Nc1nnc(N2CCNCC2)s1 [Example A-48]	1 to 15 µM	1 to 15 µM	<5
O=C(Nc1cccc(-c2nnc(Nc3ccc4[nH]ncc4c3)s2)c1)c1cn[nH]c1 [Example A-46]	> 30 µM	< 1 µM	>100
Cn1ccc(C(=O)Nc2cccc(-c3nnc(Nc4ccc5[nH]ncc5c4)s3)c2)n1 [Example A-42]	< 1 µM	< 1 µM	>5
NCCS(=O)(=O)Nc1cccc(-c2nnc(Nc3ccc4[nH]ncc4c3)s2)c1 [Example A-1]	1 to 15 µM	1 to 15 µM	<5
O=[N+]([O-])c1cccc(-c2nnc(Nc3ccc4[nH]ncc4c3)s2)c1 [Example A-45]	1 to 15 µM	1 to 15 µM	<5
Cn1cc(CC(=O)Nc2cc(-c3nnc(Nc4ccc5[nH]ncc5c4Cl)s3)ccn2)cn1 [Example 36, N-(4-(5-((4-Chloro-1H-indazol-5-yl)amino)-1,3,4-thiadiazol-2-yl)pyridin-2-yl)-2-(1-methyl-1H-pyrazol-4-yl)acetamide]	< 1 µM	< 1 µM	>5

Source: patent US10112935B2, “Indazolyl thiadiazolamines and related compounds for inhibition of Rho-associated protein kinase and the treatment of disease” (Lycera Corporation, priority 2015, dated 2018)
